The values below come from patent US20100048533A1, “LESTAURTINIB CRYSTALLINE FORM 1, CRYSTALLINE LESTAURIMIB ANHYDRATE AND AMORPHOUS LESTAURIMIB” (ABBOTT LABORATORIES, priority 2005, published 2010).

Data set [1] is described as follows: Solubility in 200 proof ethanol by HPLC (saturated solutions, two-day slurry). Particulars: slurried two days. As for the experimental part: Solubility of Lestaurtinib Crystalline Form 1 and anhydrous lestaurtinib at 26° C. and 2-8° C. was determined using HPLC. Saturated solutions of the solid-state phase in ethanol (200 poof) were obtained by slurrying a sample in ethanol for two days at 26° C. and at 2-8° C. After slurrying, each solution was filtered through 0.45 μm micron filter and the level of CEP-701 was determined by HPLC.

Data set [2] is described as follows: Slurry of lestaurtinib forms in 200 proof ethanol for 48 hours, remaining form analyzed by PXRD. The conditions noted are these: for Form After Mixing With Ethanol For 48 Hours: 200 proof ethanol, PXRD. As for the experimental part: The forms of lestaurtinib remaining were analyzed by PXRD to determine if any crystal form conversion had occurred.
The nature of data set [3]: Dynamic moisture sorption gravimetry (DMSG) (hygroscopicity). It counts as physicochemical. As for the experimental part: Because moisture-mediated crystallization was not observed during RH levels between 5% and 10%, it was concluded that the solid at 5% RH was crystalline; and because the solid contained less than 0.5% water, it was also determined that it was an anhydrate.
Dynamic moisture sorption gravimetry (DMSG) (hygroscopicity) data were obtained on a VTI Corporation model MB 300 G sorption microbalance using vacuum to control RH. The automated system controlled the RH and temperature to which each sample was exposed, while continuously recording sample weight changes. Sorption and desorption isotherms were performed at 25±0.1° C. with 5±1% RH step intervals from 0-95% RH. Samples of about 15-30 mg were dried under vacuum for up to 3 hours (approximate RH=0-1% RH) before each experiment. The weight loss observed during the drying period was used to estimate how tightly each sample held onto water. After the drying period, sorption isotherms started at 5% RH. A critical weight equilibrium of less than […] weight change over three 5 minutes periods was used to move to the next step. […] Meaning that any water present in the sample was surface water and not lattice water.

Data set [4] is described as follows: Thermogravimetric analysis (TGA) moisture / weight loss. The conditions noted are these: for weight loss: TGA. In kind it is physicochemical. The procedure:
TGA data were obtained using a TA Instruments Model 3100 and 5200 Thermal Analysts with a Model 2950 Hi Res TGA module. TGA thermograms were acquired at a heating rate of 5° C. per minute, under nitrogen purge with a flow rate of about 40 mL per minute.

Data set [5] can be described thus: Solid-state stability of crystalline forms versus relative humidity. In kind it is physicochemical. Particulars: for RH above which the form converts to a higher hydrate: ambient temperature.

For orientation: Solubility means the dissolved amount per volume that the medium holds. A high value points to much dissolved substance.

≈ marks a conversion by molar mass, not a printed value.

For `CC12OC(CC1(O)CO)n1c3ccccc3c3c4c(c5c6ccccc6n2c5c31)C(=O)NC4` (stereo not shown) [Form I, Lestaurtinib Crystalline Form 1], the Solubility in data set [1] (2-8° C.) was determined as 2380 µg/mL (≈ 5.42 mM); in data set [1] (26° C.) it was 2600 µg/mL (≈ 5.92 mM). The “Form After Mixing With Ethanol For 48 Hours” value in data set [2] (2-8° C.) and in data set [2] (26° C.) was 1 in each case. Further, the “relative stability of crystalline form” value in data set [2] (ambient temperature and 2-8° C.) is given as “most stable crystalline form of lestaurtinib”. The hygroscopicity entry in data set [3] was “non-hygroscopic”. Also, the nominal moisture uptake entry in data set [3] (DMSG, 25° C.) was “about 0.2 % (w/w)”. Further, the moisture uptake entry in data set [3] (DMSG, 25° C., 0-95% RH) is “up to 0.4%”. Moreover, the “equilibrium moisture content (EMC)” value in data set [3] (DMSG, at moisture uptake up to about 0.4%) was “about 0.1 mole water per mole drug”; in data set [3] (DMSG, at nominal moisture uptake of about 0.2%), “about 0.05 mole water per mole drug”. In data set [4] (up to about 100° C.), this compound had a weight loss of 0.04%. Besides, in data set [4] (determined by TGA), the moisture entry is given as “less than 0.05%”. Also, the solid state conversion result in data set [5] (regardless of temperature or relative humidity) is “not known to undergo solid state conversion”.

Take `C[C@]12O[C@H](C[C@]1(O)CO)n1c3ccccc3c3c4c(c5c6ccccc6n2c5c31)CNC4=O.O` [Crystalline lestaurtinib monohydrate, crystalline lestaurtinib monohydrate]: the “RH above which the form converts to a higher hydrate” value in data set [5] was “above 40 % RH”. Besides, the “factor by which ability to absorb water is reduced when ground” value in data set [5] (ground with mortar and pestle vs unground) is “about 6”.

For the compound `CC#N.CC12OC(CC1(O)CO)n1c3ccccc3c3c4c(c5c6ccccc6n2c5c31)C(=O)NC4.CC12OC(CC1(O)CO)n1c3ccccc3c3c4c(c5c6ccccc6n2c5c31)C(=O)NC4.O` (stereo not shown) [hemi: hydrate/acetonitrileate, Crystalline Lestaurtinib Hemihydrate Hemiacetonitrileate], the “Form After Mixing With Ethanol For 48 Hours” value in data set [2] (2-8° C.) and in data set [2] (26° C.) was 1 throughout.

Take `C[C@]12O[C@H](C[C@]1(O)CO)n1c3ccccc3c3c4c(c5c6ccccc6n2c5c31)CNC4=O` [Crystalline lestaurtinib anhydrate, Crystalline Lestaurtinib Anhydrate]: in data set [3] (DMSG, 25° C., between 0% and 5% RH), the “water content of solid-state phase” value is “less than 0.5%”. Also, the “RH above which the form converts to a higher hydrate” value in data set [5] is “above 5 % RH”.

In the case of `C[C@]12O[C@H](C[C@]1(O)CO)n1c3ccccc3c3c4c(c5c6ccccc6n2c5c31)CNC4=O` [hydrated, Crystalline Hydrated Lestaurtinib], the “Form After Mixing With Ethanol For 48 Hours” value in data set [2] (2-8° C.) and in data set [2] (26° C.) was 1 throughout.

The compound `C[C@]12O[C@H](C[C@]1(O)CO)n1c3ccccc3c3c4c(c5c6ccccc6n2c5c31)CNC4=O` [Amorphous, Amorphous Lestaurtinib] registered a weight loss in data set [4] (up to about 184° C.) of 5.56%.
